Laboratory results: US11529343B2, “Compositions and methods for identifying and treating dystonia disorders” (DUKE UNIVERSITY, priority 2015, dated 2022)

Assays:
[1] = tested on: delta-E Torsin1a localization; test: Delta-E Torsin1a mislocalization assay (% cells with EGFP puncta, high-content imaging); format: cell-based, human
Method: To limit variation in expression levels associated with random integration or transient expression, single copies of either WT or delta-E human TOR1A cDNAs with N-terminal EGFP fusions were inserted at the FRT site in Flp-In™ T-Rex™ 293 cells (Thermo Fisher Scientific #R780-07) via flippase recombinase-mediated cassette exchange according to the manufacturer's recommended protocols.
The cells were maintained at 37° C./5% CO2. All experiments were performed on cells with fewer than 5 passages.
Torsin1a expression was also controlled by tetracycline induction to avoid selective pressure modifying the cellular phenotypes. […] The mutant phenotype was measured as the percentage of cells with one or more EGFP puncta using automated high-content imaging analysis (see infra).
The image analysis algorithm was developed using the Cellomics ArrayScan V CompartmentAnalysisV2 protocol. Hoechst's nuclear staining (Ch1: excitation 350 nm; emission 461 nm) was used for focusing and for cell identification by nuclear size, shape, and intensity. […] Detected cells were gated according to nuclear area, length-to-width ratio, and perimeter-to-area ratio. For the purpose of analysis, cell bodies were defined by a radius of 10 μm from the outer edge of the defined nucleus. Overlapping cells were automatically segmented according to the Cellomics ArrayScanV CompartmentAnalysisV2 object segmentation feature. EGFP fluorescence (Ch2: excitation 488 nm; emission 509 nm) was used for puncta detection. […] Torsin a puncta were identified using the spot detection feature of the Compartmental AnalysisV2 protocol. The percentage of cells containing one or more puncta was used as the primary metric in this assay.
(§1) In order to test this model directly, the delta-E Torsin1a cell line was treated with compounds targeting the eIF2-alpha signaling pathway (FIG. 2). […] The following day, serial drug dilutions were prepared at 2× final concentration in assay media containing 10 μg/mL tetracycline and 30 μL of the drug/tetracycline mixture was added to the appropriate wells, while control wells received 30 μL of assay media alone or assay media+10 μg/mL tetracycline (final tetracycline concentration for all wells except negative controls: 5 μg/mL). Cells were then incubated at 37° C./5% CO^2 for 48 hours and fixed, permeabilized, Hoechst stained, and imaged as described above. The range of the Torsin1a localization effect was normalized to the percentage of cells with puncta in vehicle-treated delta-E cell line as the maximum and that in WT cell line as the minimum (FIG. 2, panels c-h). Cell count and EGFP-Torsin1a expression were normalized to their respective values in the vehicle-treated delta-E cell line as the maximum. All dose response data are the average of 4 independent experiments per dose. Untreated control data used for normalization are the average of 24 independent experiments.

[2] = tested on: pEIF2-alpha; test: Western blot, phosphorylation of EIF2-alpha in EGFP-ΔE Torsin1a expression assay cell line; format: cell-based, human; conditions: increasing concentration
Method: (§2) Cells were harvested in RIPA buffer [150 mM NaCl/50 mM NaH2PO4/2 mM EDTA/1% Triton X-100/0.5% SDS/0.5% deoxycholic acid/50 mM NaF/10 mM Na4P2O7/1 mM Na3VO4/1× phosphatase inhibitor cocktail (Sigma #P5726)/1× cOmplete Mini EDTA-free protease inhibitor cocktail (Roche #04693159001)]. Total protein concentrations were assessed by BCA assay (Thermo Fisher Scientific #23225). Proteins were resolved on 4-15% TGX gels (Bio-Rad #5671085), transferred to nitrocellulose membrane, blocked in TBS-T+5% non-fat dry milk, and probed as indicated. (Primary antibodies employed in the examples of the disclosure are presented in Table 4.) ATF4 expression was normalized to […] expression. N=3 independent control cells lines and 4 independent DYT1 cell lines, 3 replicates each.
(§3) Western blot analyses were conducted to determine the effect of Lopinavir on ATF4, CreP, pEIF2-alpha, and β-actin abundance in EGFP-ΔE Torsin1a expression assay cell lines. […] This down regulation of CreP is in keeping with the HIV protease inhibitor mediated CreP regulation. (See De Gassart et al. PNAS 2015.)

[3] = tested on: CreP; test: Western blot, CreP abundance in EGFP-ΔE Torsin1a expression assay cell line; format: cell-based, human; conditions: increasing concentration
Method: as §2, §3

[4] = tested on: Flp-In T-REx 293 cells inducibly expressing delta-E Torsin1a; test: Cytotoxicity (cell count, cellular morphology) in the Torsin1a assay cell line; format: cell-based, human
Method: as §1
Efficacy is calculated as the magnitude of the pathology correction relative to the mutant Torsin1a pathology. For example an efficacy=−100% would be equivalent to the WT TorsinA phenotype, and 0% would be equivalent to the Mutant TorsinA phenotype. CCv2 refers to the dose response Curve Class annotation, and AC refers to Active Concentration.

[5] = tested on: ATF4; test: Western blot, ATF4 abundance in EGFP-ΔE Torsin1a expression assay cell line; format: cell-based, human; conditions: increasing concentration
Method: as §2, §3

[6] = tested on: luciferase secretion; test: C.Luc. Secretion Assay; format: cell-based; conditions: orthogonal assays
Method: We tested each shRNA for its ability to rescue a previously described defect in luciferase secretion. Chen, P. et al. (2010) Hum. Mol. Genet. 19, 3502-15; Cao, S. et al. (2010) Dis. Model Mech. 3, 386-96; Barrows, N. J., et al., (2010) J. Biomol. Screen. 15, 735-47.) DYT1 patient data were obtained from 4 independent patient-derived lines and WT data (black bar) from 3 normal healthy control lines. Each line was tested in 5 independent experiments that included 4 technical replicates each (with the exception of SCD data from 3 independent experiments).
(Cao, S. et al. (2010) Dis. Model. Mech. 3, 386-96.) Subsequent testing of additional HIV protease inhibitors supported the activity of this class of compounds and generated favorable structure-activity relationship (SAR) data from which to design improved compounds (Tables 5 and 6). The results with a subset of compounds were also observed in a Luciferase secretion assay (Tables 5 and 6).

## Cc1cccc(C)c1OCC(=O)N[C@@H](Cc1ccccc1)[C@@H](O)C[C@H](Cc1ccccc1)NC(=O)[C@H](C(C)C)N1CCCNC1=O [Lopinavir]
[1]; Homo sapiens, delta-E Torsin1a assay cell line, read-out: ΔE TorsinA Mislocalization Assay Localization Max Efficacy
  Emax: 70%
[1]; dose response, delta-E cell line
  effect on delta-E Torsin1a localization (cells with puncta), in words: corrected TorsinA localization in a dose-dependent fashion
[2]
  phosphorylation of EIF2-alpha: increases phosphorylation of EIF2-alpha
[3]
  steady state levels of CreP: down-regulation of steady state levels
[3]; listed as lopinavir
  steady state levels of CreP: decreases CReP abundance
[4]
  Cytotox Efficacy: −69.87%
  Cytotox Max Resp: −55.19%
[4]; curve class per Inglese et al. 2006
  Cytotox CC-v2 (dose response Curve Class): −3
[5]
  ATF4 abundance: increases phosphorylation of EIF2-alpha and ATF4 abundance in a dose dependent manner
[6]
  effect on secretory deficits, in words: corrected secretory deficits
